Results taken from the supplement of paper PMC10307832.

Assays:
Test in all cases: relative viability (nuclei count vs DMSO), 5 days (fraction); higher = more cells survive
[1] = compound: C1CC1C(=O)NC2=NNC3=C2C=CC(=C3)C4=CC(=CC=C4)C(=O)NC5CC5 [XMD13-2] + N=C(N)NC(=N)NCCc1ccccc1 [Phenformin] (partner 250 µM)
Procedure, shortened: (§1)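 For relative viability, nuclei counts in treated wells were divided by those in vehicle wells. Lung cancer cell lines had been pin-tool dosed in 1536-well plates the day after seeding and cultured for 5 days, then fixed and stained in one step (final 0.05% Triton X-100, 1% formaldehyde, 1 ug/ml Hoechst) and imaged at 4×. Doses were one drug alone or a fixed anchor-drug dose plus five library-drug doses (not always all listed) in √10 steps, and values are duplicate-plate medians.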

[2] = compound: Cc1nc(Nc2ncc(C(=O)Nc3c(C)cccc3Cl)s2)cc(N2CCN(CCO)CC2)n1 [Dasatinib] + C[C@@H](Oc1cc(-c2cnn(C3CCNCC3)c2)cnc1N)c1c(Cl)ccc(F)c1Cl [Crizotinib] (partner 1 µM)
Procedure, shortened: as §1

[3] = compound: Cc1ccc(C(=O)Nc2cccc(C(F)(F)F)c2)cc1Nc1cncc(C(N)=O)c1 [ALW-II-49-7] + CS(=O)(=O)CCNCc1ccc(-c2ccc3ncnc(Nc4ccc(OCc5cccc(F)c5)c(Cl)c4)c3c2)o1 [Lapatinib] (partner 2 µM)
Procedure, shortened: as §1

[4] = compound: C1CC1C(=O)NC2=NNC3=C2C=CC(=C3)C4=CC(=CC=C4)C(=O)NC5CC5 [XMD13-2] + Cc1nc(NC(=O)N2CCC[C@H]2C(N)=O)sc1-c1ccnc(C(C)(C)C(F)(F)F)c1 [Alpelisib] (partner 2 µM)
Procedure, shortened: as §1

Row | Cell Line | relative viability ([1]; first compound 0.05 µM) | relative viability ([1]; first compound 0.1581 µM) | relative viability ([1]; first compound 0.5 µM) | relative viability ([1]; first compound 1.581 µM) | relative viability ([1]; first compound 5 µM) | relative viability ([2]; first compound 0.005 µM) | relative viability ([2]; first compound 0.01581 µM) | relative viability ([2]; first compound 0.05 µM) | relative viability ([2]; first compound 0.1581 µM) | relative viability ([2]; first compound 0.5 µM) | relative viability ([3]; first compound 0.08 µM) | relative viability ([3]; first compound 0.253 µM) | relative viability ([3]; first compound 0.8 µM) | relative viability ([3]; first compound 8 µM) | relative viability ([4]; first compound 0.05 µM) | relative viability ([4]; first compound 0.1581 µM) | relative viability ([4]; first compound 0.5 µM) | relative viability ([4]; first compound 1.581 µM) | relative viability ([4]; first compound 5 µM) | relative viability ([3]; first compound 2.53 µM)
1 | BEN | 0.28 | 0.263 | 0.254 | 0.26 | 0.311 | 0.706 | 0.397 | 0.493 | 0.378 | 0.332 | 0.721 | 0.814 | 0.649 | 0.629 | 1.29 | 1.03 | 1 | 1.03 | 1.11 | –
2 | NCI-H23 | 1 | 0.796 | 0.802 | 0.725 | 0.916 | 0.409 | 0.425 | 0.385 | 0.304 | 0.213 | 0.88 | 1.1 | 1.35 | 1.01 | 0.731 | 0.676 | 0.752 | 0.669 | 0.806 | 1.02
3 | NCI-H1975 | 0.436 | 0.395 | 0.407 | 0.42 | 0.401 | 0.858 | 0.852 | 0.612 | 0.404 | 0.272 | 0.742 | 0.835 | 0.763 | 0.87 | 0.768 | 0.642 | 0.656 | 0.607 | 0.648 | 0.994
4 | COR-L 105 | 0.589 | 0.532 | 0.455 | 0.506 | 0.452 | 0.71 | 0.59 | 0.528 | 0.286 | 0.285 | 0.318 | 0.372 | 0.335 | 0.416 | 1.06 | 1.36 | 0.984 | 0.964 | 0.945 | 0.359
5 | LK-2 | 0.607 | 0.496 | 0.455 | 0.334 | 0.392 | 0.266 | 0.209 | 0.222 | 0.189 | 0.179 | 1.01 | 0.778 | 0.919 | 0.825 | 1.33 | 0.998 | 0.98 | 1.04 | 1.02 | 0.567
6 | EKVX | 0.224 | 0.222 | 0.229 | 0.212 | 0.238 | 0.994 | 0.633 | 0.528 | 0.314 | 0.138 | 0.194 | 0.188 | 0.173 | 0.188 | 1.12 | 0.882 | 0.92 | 0.931 | 0.937 | 0.127
7 | NCI-H2009 | 0.473 | 0.486 | 0.54 | 0.454 | 0.517 | 0.947 | 0.936 | 0.684 | 0.314 | 0.141 | 0.913 | 1.02 | 0.819 | 0.466 | 1.23 | 1.14 | 1.22 | 1.15 | 1.23 | 0.728
8 | NCI-H838 | 0.663 | 0.538 | 0.65 | 0.544 | 0.632 | 0.571 | 0.577 | 0.306 | 0.23 | 0.202 | 0.941 | 0.887 | 0.797 | 0.853 | 1.14 | 1.04 | 1.01 | 1 | 1.06 | 1.04
9 | NCI-H2085 | 0.825 | 0.715 | 0.759 | 0.661 | 0.802 | 0.93 | 0.806 | 0.408 | 0.193 | 0.158 | 0.892 | 0.858 | 0.718 | 0.707 | 0.965 | 0.946 | 1.04 | 0.928 | 0.98 | 0.776
